Test results taken from US20220142995A1, “DUAL ATM AND DNA-PK INHIBITORS FOR USE IN ANTI-TUMOR THERAPY” (XRAD Therapeutics, Inc., priority 2019, published 2022).
Values joined by “and” are separate entries in the source; they are usually repeats but may differ in a detail not shown here. Equal values may be shown once. Where a name gives a salt, the structure may show the parent alone.

Key:
ATM = target: T1, ATM (Homo sapiens, UniProt Q13315); assay: ATM in Cell Western assay (pKAP1, etoposide-treated MCF-7 cells); type: cell-based; conditions: etoposide 100 μM, 1 h, pKAP1 readout
T1 construct: endogenous in cells; host or cells: MCF-7
T1 sequence (Q13315 whole entry): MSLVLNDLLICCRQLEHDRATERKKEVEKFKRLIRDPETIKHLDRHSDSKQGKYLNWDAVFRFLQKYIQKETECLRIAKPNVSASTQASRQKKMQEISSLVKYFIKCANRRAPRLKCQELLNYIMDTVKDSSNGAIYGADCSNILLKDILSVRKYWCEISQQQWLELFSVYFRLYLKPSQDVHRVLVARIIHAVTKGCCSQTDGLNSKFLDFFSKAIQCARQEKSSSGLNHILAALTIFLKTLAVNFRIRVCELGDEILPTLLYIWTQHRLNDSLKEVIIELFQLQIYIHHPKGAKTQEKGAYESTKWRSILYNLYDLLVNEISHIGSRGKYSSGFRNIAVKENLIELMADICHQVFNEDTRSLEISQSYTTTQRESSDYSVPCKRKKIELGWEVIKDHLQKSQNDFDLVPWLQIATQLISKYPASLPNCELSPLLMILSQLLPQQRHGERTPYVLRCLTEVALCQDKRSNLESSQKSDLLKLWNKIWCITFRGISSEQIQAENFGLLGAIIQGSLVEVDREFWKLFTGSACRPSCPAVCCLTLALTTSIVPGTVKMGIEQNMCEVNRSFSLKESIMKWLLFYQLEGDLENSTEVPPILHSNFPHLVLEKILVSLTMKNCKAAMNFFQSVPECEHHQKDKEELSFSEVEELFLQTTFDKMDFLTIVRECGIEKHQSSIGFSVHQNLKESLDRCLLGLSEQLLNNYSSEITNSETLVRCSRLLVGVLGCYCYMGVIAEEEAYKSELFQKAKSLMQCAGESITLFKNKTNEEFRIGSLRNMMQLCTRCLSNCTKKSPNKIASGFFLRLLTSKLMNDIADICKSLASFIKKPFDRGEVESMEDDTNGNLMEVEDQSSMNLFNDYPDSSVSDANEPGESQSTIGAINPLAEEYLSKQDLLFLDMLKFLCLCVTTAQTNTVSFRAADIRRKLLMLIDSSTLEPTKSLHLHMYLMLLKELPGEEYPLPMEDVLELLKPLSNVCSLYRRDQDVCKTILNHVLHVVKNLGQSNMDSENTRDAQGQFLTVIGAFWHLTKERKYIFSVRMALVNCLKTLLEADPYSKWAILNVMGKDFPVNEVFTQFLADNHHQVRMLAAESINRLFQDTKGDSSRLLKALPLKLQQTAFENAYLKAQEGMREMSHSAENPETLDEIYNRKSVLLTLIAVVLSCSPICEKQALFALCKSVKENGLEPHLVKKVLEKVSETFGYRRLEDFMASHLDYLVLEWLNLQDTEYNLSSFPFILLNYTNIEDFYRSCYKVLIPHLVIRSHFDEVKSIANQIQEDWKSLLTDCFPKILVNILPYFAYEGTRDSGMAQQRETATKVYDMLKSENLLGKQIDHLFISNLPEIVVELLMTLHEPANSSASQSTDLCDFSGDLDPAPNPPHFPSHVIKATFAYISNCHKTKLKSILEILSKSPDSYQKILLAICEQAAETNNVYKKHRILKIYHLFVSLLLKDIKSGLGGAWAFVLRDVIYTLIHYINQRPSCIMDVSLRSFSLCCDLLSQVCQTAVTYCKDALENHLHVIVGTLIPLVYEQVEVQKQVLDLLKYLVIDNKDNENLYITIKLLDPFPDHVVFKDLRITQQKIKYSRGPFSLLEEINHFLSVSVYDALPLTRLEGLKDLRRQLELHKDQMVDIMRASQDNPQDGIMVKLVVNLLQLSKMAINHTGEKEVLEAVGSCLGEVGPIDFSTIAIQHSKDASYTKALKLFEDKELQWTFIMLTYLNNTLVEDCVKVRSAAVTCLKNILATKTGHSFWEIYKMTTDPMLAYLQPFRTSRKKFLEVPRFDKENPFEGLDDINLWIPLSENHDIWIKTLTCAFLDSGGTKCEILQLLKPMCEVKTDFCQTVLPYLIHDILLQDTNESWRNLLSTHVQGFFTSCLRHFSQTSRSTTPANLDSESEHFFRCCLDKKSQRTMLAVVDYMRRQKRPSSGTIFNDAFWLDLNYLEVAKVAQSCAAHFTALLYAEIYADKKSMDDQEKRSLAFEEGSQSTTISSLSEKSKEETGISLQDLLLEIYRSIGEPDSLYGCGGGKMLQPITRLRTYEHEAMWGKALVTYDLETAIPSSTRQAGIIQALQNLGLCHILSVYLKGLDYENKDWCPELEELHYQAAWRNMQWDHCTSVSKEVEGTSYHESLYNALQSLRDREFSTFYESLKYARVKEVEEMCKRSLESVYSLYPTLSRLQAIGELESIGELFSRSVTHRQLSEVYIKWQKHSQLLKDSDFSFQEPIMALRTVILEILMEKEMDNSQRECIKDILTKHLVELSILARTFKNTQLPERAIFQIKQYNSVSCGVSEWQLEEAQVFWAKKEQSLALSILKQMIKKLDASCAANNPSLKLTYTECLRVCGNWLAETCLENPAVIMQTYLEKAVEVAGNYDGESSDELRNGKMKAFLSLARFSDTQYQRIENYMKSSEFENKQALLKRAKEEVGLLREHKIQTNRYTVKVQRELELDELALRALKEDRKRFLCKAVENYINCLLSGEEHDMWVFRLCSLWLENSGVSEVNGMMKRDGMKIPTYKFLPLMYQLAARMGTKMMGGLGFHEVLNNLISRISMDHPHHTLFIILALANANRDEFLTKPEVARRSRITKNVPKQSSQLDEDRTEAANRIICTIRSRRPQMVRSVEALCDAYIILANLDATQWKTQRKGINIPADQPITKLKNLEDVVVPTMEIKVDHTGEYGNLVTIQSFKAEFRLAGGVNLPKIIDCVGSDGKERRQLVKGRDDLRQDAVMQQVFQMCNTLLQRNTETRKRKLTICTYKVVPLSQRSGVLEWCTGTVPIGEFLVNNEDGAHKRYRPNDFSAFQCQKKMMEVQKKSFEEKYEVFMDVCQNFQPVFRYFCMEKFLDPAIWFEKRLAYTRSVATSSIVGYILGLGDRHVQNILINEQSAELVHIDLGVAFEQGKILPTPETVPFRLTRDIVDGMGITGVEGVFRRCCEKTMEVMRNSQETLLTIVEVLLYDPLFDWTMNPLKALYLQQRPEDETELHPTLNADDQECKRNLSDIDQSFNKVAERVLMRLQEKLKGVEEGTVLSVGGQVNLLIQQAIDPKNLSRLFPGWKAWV
Experimental: ATM in Cell Western Assay:
In the morning, MCF-7 breast cancer cells were placed in a 384 well plate at the density of 10,000 cells/well (Corning, #356663), 25 μL cells per well. The following day, compounds were added to the plate using a pin tool (Echo 550) to a final concentration of 1 μM through a 3-fold serial dilution (a total of 10 doses). Then, etoposide (Sigma, #E1383) was added to a final concentration of 100 μM. The plate was incubated at 37° C. for 1 h, and the cells were fixed by the addition of 25 μL of fixing solution (8% paraformaldehyde) for 20 minutes at ambient temperature. Cells were permeabilized by 5 washes with 1×PBS (phosphate buffered saline) containing 0.1% Triton X-100; each wash was 5 minutes long. Cells were blocked by adding 50 μL of Odyssey Blocking Buffer (LI-COR, #927-40000) in 384 well plates for 1.5 hours with shaking at ambient temperature. Blocking buffer was then removed, and 20 μL of anti-pKAP1 antibody (Bethyl Laboratories, #A300-767A) (1/2000) solution were added to each well of 384-well plate. The plate was incubated overnight at 4° C. and then washed 5 times with 1×PBST (1×PBS containing 0.1% Tween-20). A secondary antibody (IRDye 800CW Goat anti-Rabbit IgG, LI-COR, #926-32211) (1/5,000) solution containing DNA stain DRAQ5 (CST, #4084L) (1/5,000) (20 μL) was added to each well in the plate, and the plate was incubated 1 hour with gentle shaking in the dark. Cells were washed 5 times with 1×PBST (1×PBS containing 0.1% Tween-20) at ambient temperature with gentle shaking in the dark. After the last wash, the wash solution was removed, the plate was inverted upside down onto a thin paper towel and centrifuged at 1000 rpm for 1 min to absorb all wash buffer. The bottom of the plate was cleaned with a moist, lint-free paper. The plate was immediately scanned using ODYSSEY CLx (LI-COR).

DNA-PK = target: T2, DNA-PK (Homo sapiens, UniProt P78527); assay: DNA-PK enzyme-linked immunosorbent assay; type: biochemical; conditions: ATP 20 μM, GST-p53 substrate
T2 construct: purchased Invitrogen PR9107A
Experimental: DNA-PK Enzyme-Linked Immunosorbent Assay:
On day one, a 96-well plate (ThermoFisher, Cat #: 442404) was coated with GST-p53 (1-101) peptide (purified by Pharmaron, BCS department) by diluting 3 μg of GST-p53 in each well with 0.1 M Na2CO3/NaHCO3 (pH 9.6). The plate was incubated overnight at 4° C. On the second day, the coating buffer was removed, and the plate was washed twice with PBST (1×PBS containing 0.1% Tween-20). The DNA-PK enzyme solution (Invitrogen, #PR9107A; the final DNA-PK concentration: 0.1 μg/mL) was then added. The compounds were serially diluted to the final maximal concentration of 100 nM (3 fold series dilution, a total of 10 doses), and an ATP solution (the final ATP concentration: 20 μM) was added to the plate. Incubate the plate at 25° C. for 1 hour. The plate was washed three times with PBST (1×PBS containing 0.1% Tween-20) and blocked with a solution of PBST and 1% BSA at 4° C. overnight. The third day, the plate was washed four times with PBST (1×PBS containing 0.1% Tween-20). Anti-phospho-p53 primary antibody (cell signaling Technology, #9286, Phospho-p53 (Ser15) (16G8) Mouse mAb) (1/1000) was added to each well. The plate was sealed, incubated 1 h at 37° C., and washed four times with PBST (1×PBS containing 0.1% Tween-20). An HRP-linked secondary antibody (Cell signaling Technology, #7076, Anti-mouse IgG, HRP-linked Antibody) (1/1000) (100 μL) was added to each well. The plate was sealed with tape, incubated 30 min at 37° C., and washed four times with PBST (1×PBS containing 0.1% Tween-20). At this time, 100 μL of TMB (Cell signaling Technology, #7004) substrate were added to each well. The plate was sealed with tape and incubated the plate 10 min at 37° C. Stop solution (Cell signaling Technology, #7002) (100 μL) was added to each well, and the plate was subjected to the absorption detection at 450 nm.

hERG = target: T3, hERG (Homo sapiens, UniProt Q12809); assay: In-vitro hERG inhibition assay (manual patch clamp, hERG-T-REx HEK 293 cells); type: cell-based
T3 construct: host or cells: T-REx HEK293
T3 sequence (Q12809 whole entry): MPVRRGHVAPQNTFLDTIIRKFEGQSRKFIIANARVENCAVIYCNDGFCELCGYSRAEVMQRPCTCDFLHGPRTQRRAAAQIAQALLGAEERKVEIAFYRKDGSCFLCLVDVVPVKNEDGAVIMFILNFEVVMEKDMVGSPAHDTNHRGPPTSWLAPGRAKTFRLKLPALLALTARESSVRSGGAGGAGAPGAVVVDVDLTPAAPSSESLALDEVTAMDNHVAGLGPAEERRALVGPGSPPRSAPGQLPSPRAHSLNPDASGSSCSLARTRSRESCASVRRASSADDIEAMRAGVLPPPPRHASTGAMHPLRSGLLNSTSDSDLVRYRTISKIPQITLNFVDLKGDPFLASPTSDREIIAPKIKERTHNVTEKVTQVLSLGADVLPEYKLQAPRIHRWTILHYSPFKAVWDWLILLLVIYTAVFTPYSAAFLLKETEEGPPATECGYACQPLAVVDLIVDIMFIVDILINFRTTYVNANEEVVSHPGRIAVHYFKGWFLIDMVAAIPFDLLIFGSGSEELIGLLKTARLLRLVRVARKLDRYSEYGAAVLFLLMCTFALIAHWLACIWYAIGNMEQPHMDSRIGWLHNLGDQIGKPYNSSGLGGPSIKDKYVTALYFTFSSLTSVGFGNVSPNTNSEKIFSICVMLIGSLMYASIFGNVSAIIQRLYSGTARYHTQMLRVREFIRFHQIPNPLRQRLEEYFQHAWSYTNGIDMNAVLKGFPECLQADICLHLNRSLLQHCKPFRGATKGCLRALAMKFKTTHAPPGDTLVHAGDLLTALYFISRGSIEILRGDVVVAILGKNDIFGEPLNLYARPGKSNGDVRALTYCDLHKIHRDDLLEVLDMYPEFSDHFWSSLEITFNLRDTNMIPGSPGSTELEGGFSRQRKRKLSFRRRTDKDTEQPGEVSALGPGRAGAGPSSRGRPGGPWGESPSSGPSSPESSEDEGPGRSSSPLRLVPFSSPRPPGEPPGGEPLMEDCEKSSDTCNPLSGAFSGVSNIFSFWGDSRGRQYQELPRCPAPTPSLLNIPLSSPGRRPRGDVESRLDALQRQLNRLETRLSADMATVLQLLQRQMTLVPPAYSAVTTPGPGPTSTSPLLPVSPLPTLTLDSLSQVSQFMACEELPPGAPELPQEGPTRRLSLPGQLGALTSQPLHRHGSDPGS
Experimental: In-Vitro hERG Inhibition Assay:
The hERG-T-REx™ HEK 293 cells (Invitrogen, K1236) were generated by transfecting the hERG coding sequence in the Tet-regulated expression vector pT-Rex-DEST30 into cells expressing the Tet-repressor (T-Rex™ HEK293), thereby producing cells that can be induced to express high level of hERG channels. The cells were cultured in a medium containing of 85% DMEM, 10% dialyzed FBS, 0.1 mM NEAA, 25 mM HEPES, 100 U/mL Penicillin-Streptomycin, 5 μg/mL Blasticidin, and 400 μg/mL Geneticin. The cells were split using TrypLE™ Express (Gibco, 12604) about three times a week and maintained between ˜40% to ˜80% confluence. Before the assay, the cells were induced with doxycycline (Sigma, D9891) at 1 μg/mL for 48 hours. On the experiment day, the induced cells were resuspended and plated onto the coverslips at 5×10^5 cells/per 6 cm cell culture dish prior to use. The hERG channel-mediated current was acquired by manual patch clamp recording systems equipped with amplifiers (HEKA, EPC10 and Molecular Devices, multiclamp 700B) and the inverted phase contrast microscope (Olympus, IX51/71/73). Glass pipettes were prepared by micropipette puller (Sutter, P97 and Narishige, PC-10) and qualified by the pipette resistance in the range of […]. The internal pipette solution was 140 mM KCl, 2 mM MgCl2, 10 mM EGTA, 5 mM MgATP, and 10 mM HEPES (pH adjusted to 7.35 with KOH), and the external buffer was 132 mM NaCl, 4 mM KCl, 3 mM CaCl2), 0.5 mM MgCl2, 11.1 mM glucose, and 10 mM HEPES (pH adjusted to 7.35 with NaOH). The whole-cell configuration was maintained with access resistance continuously monitored (<15 M[…]). The hERG current was elicited by depolarizing membrane to +30 mV for 4.8 sec, and the voltage was set back to −50 mV for 5.2 sec to remove the inactivation and measure the deactivating tail current. The maximum amount of tail current size was used to determine hERG current amplitude. To evaluate the hERG inhibition, the blank vehicle and test articles were perfused to cells under whole-cell recording configuration through the liquid perfusion system (ALA, VM8 gravity-flow delivery system). For dose response assay, test article was applied to the cells accumulatively from low to high concentrations. A positive control (Dofetilide) was used in the experiments to ensure the performance of the cells and operations as major part of method validation. The percentage hERG current inhibition was fitted against dose concentrations to build the dose-response curve and determine IC50.

Row | SMILES | IC50 (ATM) | IC50 (DNA-PK) | IC50 (hERG; tail current) | IC50 (hERG; human, hERG-T-REx HEK 293 cells expressing hERG, pH 7.35, tail current)
1 | CC(C)NCCOc1ncc(-c2cc3c(cc2F)ncc2c3[C@]3(C[C@@H](OCc4ccccc4)C3)C(=O)N2C)cc1NS(C)(=O)=O [Compound 567, trans-N-(5-(3-(Benzyloxy)-7′-fluoro-3′-methyl-2′-oxo-2′,3′-dihydrospiro[cyclobutane-1,1′-pyrrolo[2,3-c]quinolin]-8′-yl)-2-(2-(isopropylamino)ethoxy)pyridin-3-yl)methanesulfonamide] | 11 nM | 2.7 nM | 5500 nM | 
2 | CC(C)NCCOc1ncc(-c2cc3c4c(cnc3cc2F)N(C)C(=O)C42CCC2)cc1NS(=O)(=O)C(C)C [Compound 568, N-(5-(7′-Fluoro-3′-methyl-2′-oxo-2′,3′-dihydrospiro[cyclobutane-1,1′-pyrrolo[2,3-c]quinolin]-8′-yl)-2-(2-(isopropylamino)ethoxy)pyridin-3-yl)propane-2-sulfonamide] | 2.88 nM | 0.79 nM | 14000 nM | 
3 | CC(C)NCCOc1ncc(-c2cc3c4c(cnc3cc2F)N(C)C(=O)C42CCC2)cc1NS(C)(=O)=O [Compound 569, N-(5-(7′-Fluoro-3′-methyl-2′-oxo-2′,3′-dihydrospiro[cyclobutane-1,1′-pyrrolo[2,3-c]quinolin]-8′-yl)-2-(2-(isopropylamino)ethoxy)pyridin-3-yl)methanesulfonamide] | 2.43 nM | 0.63 nM |  | > 30000 nM
4 | CCS(=O)(=O)Nc1cc(-c2cc3c4c(cnc3cc2F)N(C)C(=O)C42CCC2)cnc1OCCNC(C)C [Compound 570, N-(5-(7′-Fluoro-3′-methyl-2′-oxo-2′,3′-dihydrospiro[cyclobutane-1,1′-pyrrolo[2,3-c]quinolin]-8′-yl)-2-(2-(isopropylamino)ethoxy)pyridin-3-yl)ethanesulfonamide] | 3.6 nM | 0.63 nM | 10500 nM | 
5 | CN1C(=O)C2(CCC2)c2c1cnc1ccc(-c3cnc(N4CC(N(C)C)C4)c(NS(C)(=O)=O)c3)cc21 [Compound 574, N-(2-(3-(Dimethylamino)azetidin-1-yl)-5-(3′-methyl-2′-oxo-2′,3′-dihydrospiro[cyclobutane-1,1′-pyrrolo[2,3-c]quinolin]-8′-yl)pyridin-3-yl)methanesulfonamide hydrochloride] | 1.52 nM | 1.03 nM | > 30000 nM | 

Continued, in another order:

Row | IC50 (ATM) | IC50 (DNA-PK) | SMILES | IC50 (hERG; tail current) | IC50 (hERG; human, hERG-T-REx HEK 293 cells expressing hERG, pH 7.35, tail current)
6 | 6.72 nM | 1.03 nM | CC[C@H]1C[C@@]2(C1)C(=O)N(C)c1cnc3cc(F)c(-c4cnc(OCCNC(C)C)c(NS(C)(=O)=O)c4)cc3c12 [Compound 566, trans-N-(5-(3-Ethyl-7′-fluoro-3′-methyl-2′-oxo-2′,3′-dihydrospiro[cyclobutane-1,1′-pyrrolo[2,3-c]quinolin]-8′-yl)-2-(2-(isopropylamino)ethoxy)pyridin-3-yl)methanesulfonamide] | 2100 nM | 
7 | 5.76 nM and 5.51 nM | 0.67 nM and 0.94 nM | CC(C)NCCOc1ncc(-c2cc3c4c(cnc3cc2F)N(C)C(=O)C42CN(C(C)C)C2)cc1NS(C)(=O)=O [Compound 571, N-(5-(7′-Fluoro-1-isopropyl-3′-methyl-2′-oxo-2′,3′-dihydrospiro[azetidine-3,1′-pyrrolo[2,3-c]quinolin]-8′-yl)-2-(2-(isopropylamino)ethoxy)pyridin-3-yl)methanesulfonamide] | 5600 nM | 
8 | 1.05 nM | 0.32 nM | CC(C)NCCOc1ncc(-c2cc3c(cc2F)ncc2c3[C@]3(C[C@H](OCc4ccccc4)C3)C(=O)N2C)cc1NS(C)(=O)=O [Compound 572, cis-N-(5-(3-(Benzyloxy)-7′-fluoro-3′-methyl-2′-oxo-2′,3′-dihydrospiro[cyclobutane-1,1′-pyrrolo[2,3-c]quinolin]-8′-yl)-2-(2-(isopropylamino)ethoxy)pyridin-3-yl)methanesulfonamide] | 7500 nM | 
9 | 0.92 nM | 0.3 nM | CC[C@H]1C[C@]2(C1)C(=O)N(C)c1cnc3cc(F)c(-c4cnc(OCCNC(C)C)c(NS(C)(=O)=O)c4)cc3c12 [Compound 573, cis-N-(5-(3-Ethyl-7′-fluoro-3′-methyl-2′-oxo-2′,3′-dihydrospiro[cyclobutane-1,1′-pyrrolo[2,3-c]quinolin]-8′-yl)-2-(2-(isopropylamino)ethoxy)pyridin-3-yl)methanesulfonamide] | 3000 nM | 
